Where two headings read alike, the source gives them in different places.
Tests used:
[1] = target: T1, PYL9 (Arabidopsis thaliana, UniProt Q84MC7); test: receptor-mediated PP2C (HAB1) inhibition in vitro assay; assay type: biochemical; details: compound at 25 μM; control without agonist = 100%
T1 construct: 6X-His; made in house; host or cells: E. coli BL21[DE3]pLysS
T1 sequence (Q84MC7 1-187): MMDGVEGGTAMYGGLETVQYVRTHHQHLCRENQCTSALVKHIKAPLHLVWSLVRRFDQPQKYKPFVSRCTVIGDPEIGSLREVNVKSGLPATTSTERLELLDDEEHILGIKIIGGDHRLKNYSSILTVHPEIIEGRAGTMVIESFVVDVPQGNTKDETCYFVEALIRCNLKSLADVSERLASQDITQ
T1 sequence (Q9CAJ0 23-511 partner): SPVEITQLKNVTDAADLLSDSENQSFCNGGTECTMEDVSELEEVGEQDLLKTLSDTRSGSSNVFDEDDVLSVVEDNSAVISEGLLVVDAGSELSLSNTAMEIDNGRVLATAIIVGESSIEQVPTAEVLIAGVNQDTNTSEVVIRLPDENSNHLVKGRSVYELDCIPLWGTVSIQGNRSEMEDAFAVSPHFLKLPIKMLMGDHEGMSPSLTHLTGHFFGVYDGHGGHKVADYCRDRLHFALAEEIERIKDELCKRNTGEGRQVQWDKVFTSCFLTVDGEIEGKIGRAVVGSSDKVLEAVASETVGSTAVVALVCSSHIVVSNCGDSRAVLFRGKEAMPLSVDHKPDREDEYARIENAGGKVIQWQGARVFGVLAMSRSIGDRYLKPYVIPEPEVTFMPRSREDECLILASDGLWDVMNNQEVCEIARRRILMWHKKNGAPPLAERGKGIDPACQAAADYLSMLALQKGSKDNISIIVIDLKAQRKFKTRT
Description: (§1) A family of 62 structurally related N-acyl sulfonamides (Tables I-V) were tested for ABA agonist activity using multiple receptor-mediated PP2C inhibition in vitro assays (Park et al., 2009). […] The constructs utilized for protein expression have been previously described (Okamoto et al. 2013). For constructs encoding 6X-His-fusion proteins (all receptors except PYL11), the coding sequences were of the receptors were cloned in the vector pET28, expressed in BL21[DE3]pLysS E. coli host cells at 18° C. overnight, and subsequently purified from sonicated lysates using Ni-NTA agarose (Qiagen, USA), according to the manufacturer's instructions. PYL11 was constructed as a maltose binding protein fusion in the vector pMAL-c, expressed in BL21┌DE3┐pLysS host cells and purified using amylose resin (New England Biolabs) as described by the manufacturer. Recombinant GST-HAB1 was expressed and purified as described previously (Park et al., 2009). PP2C activity assays were conducted using the fluorogenic phosphatase substrate 4-methylumbelliferyl-phosphate. Recombinant receptors and HAB1 were used to examine ligand-induced PP2C inactivation in response to multiple test compounds. Enzyme inhibition assays were conducted using the following assay conditions: 50 nM GST-PP2C, 100 mM Tris-OAc (pH 7.9), 100 mM NaCl, 1 mM MnCl2, 1% β-mercaptoethanol. […] Because of this, the ratio of each receptor used in the PP2C-inhibitions assays was established empirically as the minimum fold-excess of receptor required to elicit maximal PP2C inhibition at a saturating ABA concentration (10 μM).
(§2) Based on this criterion, we used a ratio of 2:1 receptor in the assays described herein.
(§3) Using the above assay conditions, compounds were tested at 25 μM for agonist activity on PYL4, PYL5, PYL8 and PYL9. […] Consequently, a subset of the compounds was tested at multiple concentrations against 11 receptors so that IC50 values and receptor selectivity profiles could be examined. […] Thus, the N-acylsulfonamide agonists disclosed are selective for monomeric receptors.
(§4) Additional compounds were tested for biological activity following the procedures of Example 1 with minor modifications.
(§5) For these in vitro receptor assays, the compounds listed were tested in in vitro PP2C inhibition assays with 50 uM of the test compound except for ABA (10 uM). IC50s were calculated from dose curves, but only for selected compounds.

[2] = target: T2, PYL8 (Arabidopsis thaliana, UniProt Q9FGM1); test: as above; assay type: biochemical; details: compound at 25 μM; control without agonist = 100%
T2 construct: 6X-His; made in house; host or cells: E. coli BL21[DE3]pLysS
T2 sequence (Q9FGM1 1-188): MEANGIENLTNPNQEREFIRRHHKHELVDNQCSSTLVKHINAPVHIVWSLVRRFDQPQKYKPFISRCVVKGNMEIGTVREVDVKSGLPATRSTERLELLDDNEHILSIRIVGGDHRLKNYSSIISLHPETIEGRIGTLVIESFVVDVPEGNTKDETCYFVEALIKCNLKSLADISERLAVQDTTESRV
T2 sequence (Q9CAJ0 23-511 partner): T1 sequence (Q9CAJ0 23-511 partner)
Description: as §1, §2, §3, §4, §5

[3] = target: T3, PYL4 (Arabidopsis thaliana, UniProt O80920); test: as above; assay type: biochemical; details: compound at 25 μM; control without agonist = 100%
T3 construct: 6X-His; made in house; host or cells: E. coli BL21[DE3]pLysS
T3 sequence (O80920 1-207): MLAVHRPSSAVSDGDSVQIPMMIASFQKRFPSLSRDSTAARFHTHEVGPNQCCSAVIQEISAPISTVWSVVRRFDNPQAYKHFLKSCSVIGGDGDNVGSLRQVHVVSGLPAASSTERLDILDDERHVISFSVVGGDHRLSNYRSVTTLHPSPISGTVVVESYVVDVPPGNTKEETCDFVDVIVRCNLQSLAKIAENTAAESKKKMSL
T3 sequence (Q9CAJ0 23-511 partner): T1 sequence (Q9CAJ0 23-511 partner)
Description: as §1, §2, §3, §4, §5

[4] = target: T4, PYL5 (Arabidopsis thaliana, UniProt Q9FLB1); test: as above; assay type: biochemical; details: compound at 25 μM; control without agonist = 100%
T4 construct: 6X-His; made in house; host or cells: E. coli BL21[DE3]pLysS
T4 sequence (Q9FLB1 1-203): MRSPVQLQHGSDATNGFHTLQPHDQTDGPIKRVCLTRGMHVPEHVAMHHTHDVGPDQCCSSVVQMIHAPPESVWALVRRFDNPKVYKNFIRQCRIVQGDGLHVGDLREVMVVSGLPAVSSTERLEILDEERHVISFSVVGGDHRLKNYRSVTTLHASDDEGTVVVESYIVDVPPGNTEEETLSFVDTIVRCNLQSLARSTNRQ
T4 sequence (Q9CAJ0 23-511 partner): T1 sequence (Q9CAJ0 23-511 partner)
Description: as §1, §2, §3, §4, §5

[5] = system: Arabidopsis seed germination and hypocotyl growth; test: Arabidopsis seed germination and hypocotyl growth; assay type: in vivo; details: − = none; for Hypocotyl Growth Inhibition / Germination Inhibition: Germination Inhibition II, tested at 10 and 50 uM; for Hypocotyl Growth Inhibition: lowest concentration that inhibited hypocotyl growth in wells where seeds germinated; for minimal effective concentration: Table VIII, tested at 10 or 50 μM, lowest inhibiting concentration; for Germination Inhibition: lowest of the two concentrations that inhibited
Description: We germinated seeds from wild type on ½× strength Murashige and Skoog salts growth medium containing either 10 or 50 μM for all 62 compounds as well as 1 μM (+)-ABA and mock controls. […] To investigate if the any of the compounds are sufficient to control vegetative ABA responses, we treated three week old Arabidopsis plants with aqueous solutions containing 0.02% Silwet and either 50 μM of selected N-acylsulfonamides, 50 μM ABA or 0.1% DMSO (the carrier solvent for the compounds tested). The leaf temperatures were subsequently examined using a thermal imaging camera 24 hours after treatment. It is well known that ABA-induced guard cell closure reduces transpiration, which leads to increases in leaf temperatures. It has been estimated that a 1° C. increase in leaf temperature correlates with a decrease in transpiration rates by approximately 50% (Sirault et al., 2009). Since guard cell aperture is the primary determinant of transpiration rates, thermal imaging is a useful way to indirectly infer relative transpiration rates and, indirectly, relative degrees of guard cell opening at the whole plant level.
as §4
For the germination inhibition experiment, the compounds were tested at 10 and 50 uM. The amounts shown are the lowest of the two concentrations that either inhibited germination or hypocotyl growth in wells where seeds germinated.
For the germination test, the compounds were tested at 1, 5, 10, 25 and 50 uM. The amounts shown are the lowest of the concentrations that either inhibited germination or hypocotyl growth in the wells where seeds germinated.

[6] = read-out: Hypocotyl Growth Inhibition
[7] = ABA at 1 μM, read-out: Germination Inhibition

Structure (SMILES)	PP2C Activity (25 μm) PYL9 [1] [%]	PP2C Activity (25 μm) PYL8 [2] [%]	PP2C Activity (25 μm) PYL4 [3] [%]	PP2C Activity (25 μm) PYL5 [4] [%]	Hypocotyl Growth Inhibition [5] [µM]	minimal effective concentration [5, 6] [µM]	Germination Inhibition [5] [µM]	minimal effective concentration [5, 7] [µM]
CC(C)(C(=O)NS(=O)(=O)Cc1ccccc1)c1ccccc1 [Compound 5]	61	83	89	86	50	50	–	–
CC(C)(C(=O)NS(=O)(=O)Cc1ccc(C#N)cc1)c1ccccc1F [Compound 8]	69	77	91	41	10	10	50	50
CC(C)(C(=O)NS(=O)(=O)Cc1ccc(C#N)cc1)c1cccc(Br)c1 [Compound 9]	47	58	91	43	10	10	–	–
CCC(CC)(C(=O)NS(=O)(=O)Cc1ccc(C#N)cc1)c1ccc(Cl)cc1 [Compound 10]	73	83	93	75	50	50	–	–
Cc1ccc(C(C)(C)C(=O)NS(=O)(=O)Cc2ccc(C#N)cc2)cc1 [Compound 12]	47	62	92	43	50	50	–	–
CC(C)(C(=O)NS(=O)(=O)Cc1ccc(C#N)cc1)c1cccc(Cl)c1 [Compound 15]	46	57	96	51	10	10	–	–
CC(C)(C(=O)NS(=O)(=O)Cc1ccc(C#N)cc1)c1cccc(F)c1 [Compound 16]	30	43	93	47	10	10	50	50
CCC(CC)(C(=O)NS(=O)(=O)Cc1ccccc1C#N)c1ccccc1 [Compound 17]	94	95	85	96	50	50	–	–
COc1ccc(C(C)(C)C(=O)NS(=O)(=O)Cc2ccc(C#N)cc2)cc1 [Compound 22]	92	91	95	85	10	10	–	–
N#Cc1ccc(CS(=O)(=O)NC(=O)C2(c3ccccc3)CC2)cc1 [Compound 27]	63	77	97	39	50	50	–	–
N#Cc1ccc(CS(=O)(=O)NC(=O)C2(c3ccc(Cl)cc3)CCC2)cc1 [Compound 28]	37	55	96	65	10	10	–	–
N#Cc1ccc(CS(=O)(=O)NC(=O)C2(c3cccc(F)c3)CCC2)cc1 [Compound 33]	24	39	98	81	10	10	–	–
CC(C)(C)c1ccc(C2(C(=O)NS(=O)(=O)Cc3ccc(C#N)cc3)CC2)cc1 [Compound 34]	107	103	95	99	–	–	50	50
Cc1cccc(C2(C(=O)NS(=O)(=O)Cc3ccc(C#N)cc3)CC2)c1 [Compound 38]	66	77	92	41	50	50	–	–
COc1ccc(C2(C(=O)NS(=O)(=O)Cc3ccc(C#N)cc3)CCCC2)cc1 [Compound 39]	66	71	98	110	10	10	50	50
COc1ccccc1C1(C(=O)NS(=O)(=O)Cc2ccc(C#N)cc2)CC1 [Compound 41]	81	89	93	27	10	10	–	–

Reference: patent US10757937B2, “Sulfonamides that activate ABA receptors” (The Regents of the University of California, priority 2014, dated 2020)
